Experimental data taken from US6534480B2, “Compositions for increasing energy in vivo” (Bioenergy Inc., priority 1999, dated 2003).

Assays:
[1] = cited from earlier work
[2] = Treadmill test (Bruce protocol), single patient with stable coronary artery disease; assay type: in vivo, human
Protocol: The patient was tested for treadmill performance. After two baseline treadmill tests, following the Bruce protocol, they received orally administered D-ribose (40 gm in three divided doses daily) for three days and completed a third treadmill test. […] In each test, this patient concluded the test due to shortness of breath, but experienced no angina.
It is generally accepted that the product of heart rate and systemic pressure is a measure of myocardial function and energy level, with lower numbers indicating better myocardial function. As a result of the administration of ribose, average tolerated time on the treadmill increased.

[3] = Cycle sprint power output in healthy fit subjects (Ribose Athlete Study); assay type: in vivo, human; conditions: for Mean Power Per Kilogram, Average / Peak Power Per Kilogram, Average / Total Power Per Kilogram, Average: average of sessions 1-6
Protocol: Four healthy, fit subjects in the age range 24 to 26 years of age were tested. The group was selected to be homogeneous regarding fitness level, gender and mean age with no known metabolic, neuronal, endocrine or cardiopulmonary disorders. All were capable of or had experience with cycling. The study protocol included four phases: (1) an initial baseline phase consisting of no exercise session; (2) a loading phase including three days of administration of either D-ribose or placebo (glucose) three times per day; (3) a training phase of three days employing exercise sessions characterized by serial (N=6) bouts of short (10 second) high-intensity cycle sprints at 7% body mass resistance with 50 second rest periods between sprints twice per day (morning and afternoon), and (4) a recovery phase for a period of 48 hours after the final training session. FIG. 1 is a diagram of a single cycle sprint bout. Two subjects were randomly selected for inclusion into the placebo or ribose group. Ribose or glucose was administered orally in a 250 ml iso-osmotic solution containing 10.0 grams of either ribose or placebo three times per day for three days preceding training (loading phase) and for three days during training (training phase). One-half liter isotonic electrolyte solution was given immediately post exercise and again 30 minutes later to avoid dehydration.

[4] = oral, humans; cited from earlier work
[5] = ribose group mean, sprint session 1
[6] = ribose group mean, sprint session 2
[7] = ribose group mean, sprint session 3
[8] = ribose group mean, sprint session 4
[9] = ribose group mean, sprint session 5
[10] = ribose group mean, sprint session 6

O=C[C@H](O)[C@H](O)[C@H](O)CO [Ribose, D-ribose]
symptoms of MAD-deficient patients ([1]; MAD-deficient patients): relieved
effect in normal volunteers ([1]; normal volunteers): no beneficial effect
Rate-pressure product, % change ([2]; 0 (rest), Test vs average of two baselines): −9.55%
Rate-pressure product (beats per minute times systolic blood pressure mm Hg), Test ([2]; 0 (rest), oral D-ribose 40 gm in three divided doses daily for three days): 9,177
Rate-pressure product (beats per minute times systolic blood pressure mm Hg), Test ([2]; 3 minutes on treadmill, after D-ribose): 15,272
Rate-pressure product, % change ([2]; 3 minutes, Test vs average of two baselines): −1.60%
Rate-pressure product (beats per minute times systolic blood pressure mm Hg), Test ([2]; 6 minutes on treadmill, after D-ribose): 20,592
Rate-pressure product, % change ([2]; 6 minutes, Test vs average of two baselines): −15.68%
Rate-pressure product (beats per minute times systolic blood pressure mm Hg), Test ([2]; 9 minutes on treadmill, after D-ribose): 25,356
Rate-pressure product, % change ([2]; 9 minutes, Test vs average of two baselines): −9.87%
Tolerated time, % change ([2]; Test vs average of two baselines): 5.06%
patient's subjective report ([2]; during ribose administration): feeling more energetic
Tolerated time, Test ([2]; treadmill, Bruce protocol, after D-ribose): 540.00 s
Mean Power Per Kilogram, Average ([3]; ribose group mean): 8.2 Watts
Peak Power Per Kilogram, Average ([3]; ribose group mean): 9.6 Watts
Total Power Per Kilogram, Average ([3]; ribose group mean): 81.6
Peak Power Per Kilogram [3, 5]: 8.9 Watts
Total Power Per Kilogram [3, 5]: 79.3
Mean Power Per Kilogram ([3]; ribose group mean, sprint session 1, 10.0 grams oral three times per day): 7.8 Watts
Mean Power Per Kilogram [3, 6]: 8.4 Watts
Peak Power Per Kilogram [3, 6]: 9.7 Watts
Total Power Per Kilogram [3, 6]: 83.3
Mean Power Per Kilogram [3, 7]: 8.5 Watts
Peak Power Per Kilogram [3, 7]: 10.0 Watts
Total Power Per Kilogram [3, 7]: 84.2
Mean Power Per Kilogram [3, 8]: 8.3 Watts
Peak Power Per Kilogram [3, 8]: 9.9 Watts
Total Power Per Kilogram [3, 8]: 82.8
Mean Power Per Kilogram [3, 9]: 8.2 Watts
Peak Power Per Kilogram [3, 9]: 9.8 Watts
Total Power Per Kilogram [3, 9]: 81.8
Mean Power Per Kilogram [3, 10]: 7.8 Watts
Peak Power Per Kilogram [3, 10]: 9.3 Watts
Total Power Per Kilogram [3, 10]: 77.9
Mean Power Per Kilogram, average relative to placebo (100.0%) ([3]; ribose group vs placebo group): 109.0%
Peak Power Per Kilogram, average relative to placebo (100.0%) ([3]; ribose group vs placebo group): 109.9%
Total Power Per Kilogram, average relative to placebo (100.0%) ([3]; ribose group vs placebo group): 109.5%
increase in performance ([3]; ribose vs placebo, Tables II to IV): 9%
Mean Power Per Kilogram, Average ([3]; subject 2R): 7.5 Watts
Peak Power Per Kilogram, Average ([3]; subject 2R): 8.8 Watts
Total Power Per Kilogram, Average ([3]; subject 2R): 75.1
Mean Power Per Kilogram ([3]; subject 2R, sprint session 1): 6.9 Watts
Peak Power Per Kilogram ([3]; subject 2R, sprint session 1): 7.9 Watts
Total Power Per Kilogram ([3]; subject 2R, sprint session 1): 71.9
Mean Power Per Kilogram ([3]; subject 2R, sprint session 2): 7.5 Watts
Peak Power Per Kilogram ([3]; subject 2R, sprint session 2): 8.8 Watts
Total Power Per Kilogram ([3]; subject 2R, sprint session 2): 74.7
Mean Power Per Kilogram ([3]; subject 2R, sprint session 3): 7.8 Watts
Peak Power Per Kilogram ([3]; subject 2R, sprint session 3): 9.2 Watts
Total Power Per Kilogram ([3]; subject 2R, sprint session 3): 77.1
Mean Power Per Kilogram ([3]; subject 2R, sprint session 4): 7.6 Watts
Peak Power Per Kilogram ([3]; subject 2R, sprint session 4): 9.0 Watts
Total Power Per Kilogram ([3]; subject 2R, sprint session 4): 75.6
Mean Power Per Kilogram ([3]; subject 2R, sprint session 5): 7.9 Watts
Peak Power Per Kilogram ([3]; subject 2R, sprint session 5): 9.4 Watts
Total Power Per Kilogram ([3]; subject 2R, sprint session 5): 78.1
Mean Power Per Kilogram ([3]; subject 2R, sprint session 6): 7.4 Watts
Peak Power Per Kilogram ([3]; subject 2R, sprint session 6): 8.7 Watts
Total Power Per Kilogram ([3]; subject 2R, sprint session 6): 73.4
Mean Power Per Kilogram, Average ([3]; subject 3R): 8.8 Watts
Peak Power Per Kilogram, Average ([3]; subject 3R): 10.3 Watts
Total Power Per Kilogram, Average ([3]; subject 3R): 88.0
Mean Power Per Kilogram ([3]; subject 3R, sprint session 1): 8.7 Watts
Peak Power Per Kilogram ([3]; subject 3R, sprint session 1): 9.8 Watts
Total Power Per Kilogram ([3]; subject 3R, sprint session 1): 86.8
Mean Power Per Kilogram ([3]; subject 3R, sprint session 2): 9.2 Watts
Peak Power Per Kilogram ([3]; subject 3R, sprint session 2): 10.6 Watts
Total Power Per Kilogram ([3]; subject 3R, sprint session 2): 91.9
Mean Power Per Kilogram ([3]; subject 3R, sprint session 3): 9.1 Watts
Peak Power Per Kilogram ([3]; subject 3R, sprint session 3): 10.7 Watts
Total Power Per Kilogram ([3]; subject 3R, sprint session 3): 91.3
Mean Power Per Kilogram ([3]; subject 3R, sprint session 4): 9.0 Watts
Peak Power Per Kilogram ([3]; subject 3R, sprint session 4): 10.7 Watts
Total Power Per Kilogram ([3]; subject 3R, sprint session 4): 90.0
Mean Power Per Kilogram ([3]; subject 3R, sprint session 5): 8.5 Watts
Peak Power Per Kilogram ([3]; subject 3R, sprint session 5): 10.1 Watts
Total Power Per Kilogram ([3]; subject 3R, sprint session 5): 85.4
Mean Power Per Kilogram ([3]; subject 3R, sprint session 6): 8.2 Watts
Peak Power Per Kilogram ([3]; subject 3R, sprint session 6): 9.9 Watts
Total Power Per Kilogram ([3]; subject 3R, sprint session 6): 82.5
treatment of cardiac insufficiency and hypovolemic shock [4]: effective
